# Assay results taken from ChEMBL document CHEMBL1201862, “PubChem BioAssay data set” (2004).
#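 Cells were grown in 96-well plates and exposed to each compound for 48 hours at five concentrations; endpoints were interpolated linearly between bracketing concentrations, or set to the highest concentration if not reached. GI50 is the concentration that inhibits growth by half.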 Active and inactive are the calls of the source. Rule as the data show it: active = GI50 up to about 1.1 µM and inactive = higher.
# Experiments:
# Test in all cases: DTP human tumour cell line panel, 48 h
# KM-20L2 = system: KM-20L2
# SN12C = system: SN12C
# TK-10 = system: TK-10
# KM12 = system: KM12
# A549 = system: A549
# DLD-1 = system: DLD-1
# M14 = system: M14
# T47D = system: T47D
# IGROV-1 = system: IGROV-1
# MDA-MB-231 = system: MDA-MB-231
# RXF 393 = system: RXF 393
# Hs-578T = system: Hs-578T
# NCI-H522 = system: NCI-H522
# M19-MEL = system: M19-MEL
# A498 = system: A498
# Malme-3M = system: Malme-3M
# HCT-116 = system: HCT-116
# ACHN = system: ACHN
# HOP-92 = system: HOP-92
# XF498 = system: XF498
# MDA-N = system: MDA-N
# RXF 631 = system: RXF 631
# UACC-62 = system: UACC-62
# MCF7 = system: MCF7
# NCI/ADR-RES = system: NCI/ADR-RES
# DMS-114 = system: DMS-114
# UO-31 = system: UO-31
# SNB-78 = system: SNB-78
# HCC 2998 = system: HCC 2998
# OVCAR-4 = system: OVCAR-4
# SK-MEL-5 = system: SK-MEL-5
# OVCAR-5 = system: OVCAR-5
# SNB-75 = system: SNB-75
# MOLT-4 = system: MOLT-4
# BT-549 = system: BT-549
# OVCAR-8 = system: OVCAR-8
# HCT-15 = system: HCT-15
# SK-MEL-2 = system: SK-MEL-2
# U-251 = system: U-251
# SF-268 = system: SF-268
# DU-145 = system: DU-145
# DMS-273 = system: DMS-273
# LOX IMVI = system: LOX IMVI
# LXFL 529 = system: LXFL 529
# NCI-H226 = system: NCI-H226
# HOP-18 = system: HOP-18
# RPMI-8226 = system: RPMI-8226
# MDA-MB-435 = system: MDA-MB-435
# NCI-H460 = system: NCI-H460
# HT-29 = system: HT-29
# SR = system: SR
# SF-539 = system: SF-539
# SW-620 = system: SW-620
# CAKI-1 = system: CAKI-1
# COLO 205 = system: COLO 205
# UACC-257 = system: UACC-257
# SF-295 = system: SF-295
# HOP-62 = system: HOP-62
# PC-3 = system: PC-3
# OVCAR-3 = system: OVCAR-3
# HL-60 = system: HL-60
# SK-MEL-28 = system: SK-MEL-28
# SNB-19 = system: SNB-19
# EKVX = system: EKVX
# K562 = system: K562
# CCRF-CEM = system: CCRF-CEM
# SK-OV-3 = system: SK-OV-3
# NCI-H23 = system: NCI-H23
# 786-0 = system: 786-0
compound,measurement,setting,value
CC1OC(CC(=O)O)CC2=C1C(=O)c1c(O)cccc1C2=O (centres undefined) [NANAOMYCIN],GI50,KM-20L2,225 nM (active)
same,GI50,SN12C,290 nM (active)
same,GI50,TK-10,929 nM (active)
same,GI50,KM12,1270 nM (inactive)
same,GI50,A549,2080 nM (inactive)
same,GI50,DLD-1,19.2 nM (active)
same,GI50,M14,140 nM (active)
same,GI50,T47D,188 nM (active)
same,GI50,IGROV-1,360 nM (active)
same,GI50,MDA-MB-231,218 nM (active)
same,GI50,RXF 393,24.2 nM (active)
same,GI50,Hs-578T,142 nM (active)
same,GI50,NCI-H522,27.8 nM (active)
same,GI50,M19-MEL,84.5 nM (active)
same,GI50,A498,900 nM (active)
same,GI50,Malme-3M,203 nM (active)
same,GI50,HCT-116,49.9 nM (active)
same,GI50,ACHN,229 nM (active)
same,GI50,HOP-92,125 nM (active)
same,GI50,XF498,166 nM (active)
same,GI50,MDA-N,182 nM (active)
same,GI50,RXF 631,600 nM (active)
same,GI50,UACC-62,116 nM (active)
same,GI50,MCF7,142 nM (active)
same,GI50,NCI/ADR-RES,179 nM (active)
same,GI50,DMS-114,129 nM (active)
same,GI50,UO-31,483 nM (active)
same,GI50,SNB-78,130 nM (active)
same,GI50,HCC 2998,468 nM (active)
same,GI50,OVCAR-4,274 nM (active)
same,GI50,SK-MEL-5,289 nM (active)
same,GI50,OVCAR-5,1390 nM (inactive)
same,GI50,SNB-75,1500 nM (inactive)
same,GI50,MOLT-4,30.9 nM (active)
same,GI50,BT-549,116 nM (active)
same,GI50,OVCAR-8,128 nM (active)
same,GI50,HCT-15,53.8 nM
same,GI50,SK-MEL-2,331 nM (active)
same,GI50,U-251,1030 nM (active)
same,GI50,SF-268,316 nM (active)
same,GI50,DU-145,1120 nM (inactive)
same,GI50,DMS-273,212 nM (active)
same,GI50,LOX IMVI,42.1 nM (active)
same,GI50,LXFL 529,85.1 nM (active)
same,GI50,NCI-H226,977 nM (active)
same,GI50,HOP-18,2410 nM (inactive)
same,GI50,RPMI-8226,44.7 nM (active)
same,GI50,MDA-MB-435,138 nM (active)
same,GI50,NCI-H460,1740 nM (inactive)
same,GI50,HT-29,62.4 nM (active)
same,GI50,SR,33.6 nM (active)
same,GI50,SF-539,1040 nM (active)
same,GI50,SW-620,36.1 nM (active)
same,GI50,CAKI-1,95.5 nM (active)
same,GI50,COLO 205,47.4 nM (active)
same,GI50,UACC-257,96.8 nM (active)
same,GI50,SF-295,1080 nM (active)
same,GI50,HOP-62,1550 nM (inactive)
same,GI50,PC-3,241 nM (active)
same,GI50,OVCAR-3,81.7 nM (active)
same,GI50,HL-60,16 nM (active)
same,GI50,SK-MEL-28,63 nM (active)
same,GI50,SNB-19,1660 nM (inactive)
same,GI50,EKVX,708 nM (active)
same,GI50,K562,22 nM (active)
same,GI50,CCRF-CEM,19.4 nM (active)
same,GI50,SK-OV-3,4000 nM (inactive)
same,GI50,NCI-H23,560 nM (active)
same,GI50,786-0,137 nM (active)
